Results taken from the supplement of paper PMC10331698.
± gives the standard deviation of the averaged measurements.

How the values were obtained:
Test in all cases: level (log10 ratio to DMSO vehicle control); higher = higher biomarker level / cell amount than vehicle control
Details in all cases: in DMSO
[1] = compound: O=C(O)CCC(F)(F)C(F)(F)C(F)(F)F [3:3 Fluorotelomer carboxylic acid]
Method: (§1)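 BioMAP Diversity Plus panel of 12 human primary cell co-culture systems (3C, 4H, LPS, SAg, BT, BF4T, BE3C, CASM3C, HDF3CGF, KF3CT, MyoF, Mphg). Compounds were added 1 h before stimulation and left for 24 h (MyoF 48 h; BT 72 h for soluble read-outs or 6 d for IgG). Biomarkers were read by ELISA, cytotoxicity by SRB, PBMC viability and proliferation by Alamar Blue. Each well value was divided by the mean of 8 DMSO control wells on the same plate and log10 transformed; duplicate blinded samples were tested at 4 concentrations.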

[2] = compound: O=C(O)C(F)(F)C(F)(F)C(F)(F)C(F)(F)C(F)(F)C(F)(F)C(F)(F)C(F)(F)C(F)(F)C(F)(F)C(F)(F)C(F)(F)F [Perfluorotridecanoic acid]
Method: as §1

[3] = compound: O=C(O)C(F)(F)C(F)(F)C(F)(F)C(F)(F)C(F)(F)C(F)(F)C(F)(F)C(F)(F)Cl [9-Chloro-perfluorononanoic acid]
Method: as §1

[4] = compound: OCC(F)(F)C(F)(F)C(F)(F)C(F)(F)C(F)(F)C(F)F [1H,1H,7H-Dodecafluoro-1-heptanol]
Method: as §1

[5] = compound: O=S(=O)(O)C(F)(F)C(F)(F)C(F)(F)C(F)(F)C(F)(F)C(F)(F)C(F)(F)C(F)(F)F [Perfluorooctanesulfonic acid]
Method: as §1

Hexafluoroglutaric acid = compound: O=C(O)C(F)(F)C(F)(F)C(F)(F)C(=O)O [Hexafluoroglutaric acid]
Method: as §1

| Test System | level (log10) ([1]; 6700 nM) | level (log10) ([1]; 20000 nM) | level (log10) ([1]; 60000 nM) | level (log10) ([2]; 1500 nM) | level (log10) ([2]; 4400 nM) | level (log10) ([2]; 13000 nM) | level (log10) ([2]; 40000 nM) | level (log10) ([3]; 6700 nM) | level (log10) ([3]; 20000 nM) | level (log10) ([4]; 6700 nM) | level (log10) ([4]; 20000 nM) | level (log10) ([4]; 60000 nM) | level (log10) ([5]; 6700 nM) | level (log10) ([5]; 20000 nM) | level (log10) ([5]; 60000 nM) | level (log10) (Hexafluoroglutaric acid; 6700 nM) | level (log10) (Hexafluoroglutaric acid; 20000 nM) | level (log10) (Hexafluoroglutaric acid; 60000 nM) |
| --- | --- | --- | --- | --- | --- | --- | --- | --- | --- | --- | --- | --- | --- | --- | --- | --- | --- | --- |
| CASM3C:CD141/Thrombomodulin | -0.0065 ± 0.005 | -0.0085 ± 0.011 | -0.0185 ± 0.0035 | 0.0215 ± 0.11 | -0.0185 ± 0.084 | 0.03 ± 0.062 | 0.193 ± 0.015 | -0.0175 ± 0.022 | -0.0225 ± 0.025 | 0.0095 ± 0.052 | 0.0055 ± 0.0064 | -0.0055 ± 0.047 | -0.007 ± 0.0085 | -0.0115 ± 0.0078 | -0.017 ± 0.031 | -0.008 ± 0.0099 | -0.0175 ± 0.0021 | 0.043 ± 0.065 |
| CASM3C:CD142/Tissue Factor | 0.0015 ± 0.012 | -0.0015 ± 0.013 | -0.0305 ± 0.054 | -0.004 ± 0.064 | 0.002 ± 0.024 | -0.0025 ± 0.018 | -0.012 ± 0.034 | -0.017 ± 0.011 | 0.0055 ± 0.0064 | 0.0235 ± 0.043 | 0.0015 ± 0.0064 | -0.0185 ± 0.0035 | -0.035 ± 0.02 | -0.033 ± 0.048 | -0.0525 ± 0.09 | 0.003 ± 0.033 | 0.0015 ± 0.005 | 0.0185 ± 0.021 |
| CASM3C:CXCL8/IL-8 | -0.0025 ± 0.0021 | -0.008 ± 0.0014 | 0.0085 ± 0.022 | 0.002 ± 0.037 | -0.003 ± 0.025 | -0.014 ± 0.037 | -0.0155 ± 0.0021 | 0.0045 ± 0.00071 | 0.0175 ± 0.016 | 0.0055 ± 0.012 | 0.005 ± 0.013 | 0.0055 ± 0.00071 | 0.001 ± 0.038 | 0.0045 ± 0.025 | 0.0485 ± 0.0021 | -0.002 ± 0.017 | -0.016 ± 0.014 | 0.0075 ± 0.0064 |
| CASM3C:CXCL9/MIG | 0.004 ± 0.0028 | 0.008 ± 0.0099 | 0.002 | 0.013 ± 0.044 | -0.006 ± 0.017 | -0.054 ± 0.018 | -0.0405 ± 0.054 | -0.0355 ± 0.0035 | -0.0235 ± 0.013 | 0.002 ± 0.0071 | 0.007 ± 0.0014 | 0.0195 ± 0.005 | -0.0085 ± 0.00071 | -0.003 ± 0.0014 | 0.0705 ± 0.032 | -0.0195 ± 0.019 | -0.02 ± 0.0085 | 0.022 ± 0.033 |
| CASM3C:HLA-DR | 0.007 ± 0.0085 | 0.006 ± 0.023 | -0.009 ± 0.028 | 0.0015 ± 0.0092 | -0.0285 ± 0.035 | -0.0385 ± 0.013 | -0.085 ± 0.062 | 0.0085 ± 0.0035 | 0.0015 ± 0.012 | -0.0045 ± 0.03 | 0.0075 ± 0.0064 | 0.0045 ± 0.0021 | -0.0365 ± 0.012 | -0.0465 ± 0.016 | -0.0395 ± 0.052 | 0.0165 ± 0.049 | -0.015 ± 0.045 | 0.0055 ± 0.019 |
| CASM3C:IL-6 | -0.029 ± 0.016 | -0.0295 ± 0.015 | 0.0085 ± 0.018 | 0.005 ± 0.062 | -0.047 ± 0.0028 | -0.059 ± 0.028 | -0.0815 ± 0.08 | -0.0115 ± 0.00071 | -0.0325 ± 0.019 | -0.0165 ± 0.035 | -0.024 ± 0.021 | 0.008 ± 0.028 | -0.0375 ± 0.0078 | -0.0465 ± 0.005 | -0.061 ± 0.099 | -0.0175 ± 0.0035 | -0.015 ± 0.021 | 0.022 ± 0.082 |
| CASM3C:LDLR | -0.0165 ± 0.00071 | -0.0105 ± 0.0035 | 0.011 ± 0.027 | -0.001 ± 0.013 | 0.013 ± 0.02 | 0.0105 ± 0.025 | -0.021 ± 0.0028 | -0.011 ± 0.013 | -0.0065 ± 0.0021 | 0.0045 ± 0.05 | -0.0135 ± 0.028 | 0.014 ± 0.024 | -0.002 ± 0.0085 | -0.007 ± 0.0014 | -0.0165 ± 0.032 | -0.009 ± 0.0099 | -0.0175 ± 0.026 | -0.015 ± 0.014 |
| CASM3C:M-CSF | -0.0055 ± 0.037 | -0.02 ± 0.018 | 0.0185 ± 0.028 | 0.0075 ± 0.054 | 0.0255 ± 0.005 | 0.0565 ± 0.039 | 0.095 ± 0.0085 | -0.0235 ± 0.0035 | -0.0315 ± 0.011 | -0.0045 ± 0.0035 | -0.0185 ± 0.0035 | 0.0145 ± 0.039 | -0.0135 ± 0.016 | 0.009 ± 0.0028 | -0.009 ± 0.03 | -0.0135 ± 0.022 | -0.0185 ± 0.033 | 0.018 ± 0.018 |
| CASM3C:PAI-I | -0.002 ± 0.0057 | -0.0035 ± 0.00071 | 0.009 ± 0.0014 | 0.005 ± 0.0085 | 0 ± 0.011 | 0.0135 ± 0.013 | 0.01 ± 0.0057 | -0.002 ± 0.0071 | 0.0065 ± 0.0078 | 0.004 ± 0.0057 | -0.0005 ± 0.0064 | 0.0045 ± 0.011 | -0.001 ± 0.0071 | 0 ± 0.0014 | 0.0095 ± 0.0021 | -0.0015 ± 0.015 | -0.0005 ± 0.0064 | 0.0075 ± 0.0064 |
| CASM3C:Proliferation | -0.01 ± 0.011 | 0.005 ± 0.0042 | 0.0005 ± 0.022 | 0.02 ± 0.016 | -0.0055 ± 0.036 | 0.0085 ± 0.026 | -0.013 ± 0.0014 | -0.016 ± 0.02 | 0.004 ± 0.025 | 0.004 ± 0.0042 | -0.006 ± 0.025 | -0.018 ± 0.013 | 0.006 ± 0.042 | 0.0055 ± 0.022 | 0.057 ± 0.02 | -0.015 ± 0.083 | -0.029 ± 0.0071 | 0.004 ± 0.0071 |
| CASM3C:SRB | 0.005 ± 0.016 | 0.002 ± 0.014 | -0.0055 ± 0.011 | 0.0075 ± 0.016 | 0.005 ± 0.0042 | -0.002 ± 0.0014 | -0.0065 ± 0.00071 | -0.001 ± 0.0028 | 0.0045 ± 0.0078 | -0.0045 ± 0.00071 | -0.006 ± 0.0028 | -0.0015 ± 0.0021 | 0.003 ± 0.0042 | 0.0005 ± 0.0064 | 0.0095 ± 0.011 | -0.001 ± 0.0028 | -0.0035 ± 0.0021 | 0.0065 ± 0.005 |
| CASM3C:Serum Amyloid A | -0.0055 ± 0.029 | -0.004 ± 0.0042 | -0.0005 ± 0.032 | 0.0495 ± 0.086 | 0.074 ± 0.052 | 0.181 ± 0.075 | 0.157 ± 0.11 | 0.001 ± 0.016 | 0.0285 ± 0.011 | -0.019 ± 0.045 | -0.01 ± 0.031 | -0.0275 ± 0.037 | 0.0035 ± 0.0021 | -0.017 ± 0.0014 | -0.005 ± 0.04 | 0.0395 ± 0.049 | 0.027 ± 0.018 | 0.0085 ± 0.019 |
| HDF3CGF:CCL2/MCP-1 | 0.004 ± 0.013 | 0.0005 ± 0.0035 | 0.015 ± 0.041 | 0.0155 ± 0.043 | -0.039 ± 0.082 | -0.018 ± 0.018 | -0.0145 ± 0.015 | 0.0205 ± 0.022 | -0.013 ± 0.021 | 0.012 ± 0.024 | 0.0105 ± 0.03 | 0.018 ± 0.017 | -0.005 ± 0.0042 | -0.013 ± 0.0071 | 0.01 ± 0.033 | -0.01 ± 0.0028 | -0.0215 ± 0.012 | -0.005 ± 0.0042 |
| HDF3CGF:CD54/ICAM-1 | -0.0025 ± 0.0078 | -0.0135 ± 0.015 | -0.017 ± 0.0028 | -0.016 ± 0.0071 | -0.0075 ± 0.015 | -0.0135 ± 0.064 | -0.0275 ± 0.12 | -0.077 ± 0.017 | -0.112 ± 0.014 | 0.006 ± 0.0085 | 0.0015 ± 0.012 | -0.003 ± 0.0099 | -0.025 ± 0.013 | -0.0105 ± 0.00071 | -0.033 ± 0.014 | 0.001 ± 0.018 | 0.0035 ± 0.013 | 0.004 ± 0.016 |
| HDF3CGF:CD106/VCAM-1 | -0.0055 ± 0.00071 | 0.02 ± 0.014 | -0.009 ± 0.0085 | -0.0785 ± 0.0021 | -0.207 ± 0.14 | -0.152 ± 0.026 | -0.291 ± 0.04 | -0.0005 ± 0.074 | -0.067 ± 0.096 | 0.014 ± 0.0014 | 0.011 ± 0.0085 | -0.0045 ± 0.00071 | -0.043 ± 0.03 | -0.089 ± 0.0057 | -0.21 ± 0.083 | -0.045 ± 0.0071 | -0.0195 ± 0.071 | -0.05 ± 0.12 |
| HDF3CGF:CXCL8/IL-8 | -0.006 ± 0.016 | -0.002 ± 0.0099 | -0.004 ± 0.017 | 0.007 | 0.004 ± 0.0014 | 0.012 ± 0.0014 | 0.0165 ± 0.015 | -0.0225 ± 0.011 | 0.0015 ± 0.005 | 0.0045 ± 0.016 | 0.0035 ± 0.019 | 0.0055 ± 0.0035 | -0.017 ± 0.0057 | -0.014 ± 0.0042 | 0.0055 ± 0.015 | -0.005 ± 0.013 | -0.0005 ± 0.0064 | -0.0015 ± 0.0035 |
